Measured values from ChEMBL document CHEMBL4507294, “Data for DCP probe MSD-CYP11B2” (2021).

Key:
[1] = tested on: eIF-2-alpha kinase GCN2 (Homo sapiens), Q9P2K8 [S808G]; settings: Compound concentration 1000.0 nM
[2] = biological target: T1, 5-hydroxytryptamine receptor 3A (Homo sapiens) (UniProt P46098); settings: Compound concentration 10.0 uM
T1 sequence (whole entry): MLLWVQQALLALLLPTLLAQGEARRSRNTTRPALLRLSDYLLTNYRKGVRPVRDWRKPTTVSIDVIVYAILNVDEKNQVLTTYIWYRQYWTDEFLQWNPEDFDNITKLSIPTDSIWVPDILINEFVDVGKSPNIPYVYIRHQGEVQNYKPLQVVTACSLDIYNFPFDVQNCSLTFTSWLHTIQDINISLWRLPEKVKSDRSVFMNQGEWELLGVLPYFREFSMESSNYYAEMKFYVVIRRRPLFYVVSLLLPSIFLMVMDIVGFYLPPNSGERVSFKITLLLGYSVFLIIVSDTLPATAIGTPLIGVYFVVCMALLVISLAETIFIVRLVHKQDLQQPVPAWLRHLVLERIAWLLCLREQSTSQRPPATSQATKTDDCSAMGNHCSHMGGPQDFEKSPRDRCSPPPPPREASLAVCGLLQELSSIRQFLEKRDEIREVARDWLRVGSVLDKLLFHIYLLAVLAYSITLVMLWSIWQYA

[3] = biological target: Dual specificity mitogen-activated protein kinase kinase 1 (Homo sapiens) (UniProt Q02750); settings: Compound concentration 1000.0 nM
[4] = tested on: Mast/stem cell growth factor receptor Kit (Homo sapiens), P10721 [D816V]; settings: Compound concentration 1000.0 nM
[5] = biological target: Rho-associated protein kinase 2 (Homo sapiens) (UniProt O75116); settings: Compound concentration 1000.0 nM
[6] = biological target: Glycogen synthase kinase-3 beta (Homo sapiens) (UniProt P49841); settings: Compound concentration 1000.0 nM
[7] = biological target: Eukaryotic translation initiation factor 2-alpha kinase 1 (Homo sapiens) (UniProt Q9BQI3); settings: Compound concentration 1000.0 nM
[8] = biological target: Mitogen-activated protein kinase 7 (Homo sapiens) (UniProt Q13164); settings: Compound concentration 1000.0 nM
[9] = biological target: Cyclin-dependent kinase 2 (Homo sapiens) (UniProt P24941); settings: Compound concentration 1000.0 nM
[10] = biological target: Casein kinase II subunit alpha' (Homo sapiens) (UniProt P19784); settings: Compound concentration 1000.0 nM
[11] = biological target: Rho-associated protein kinase 1 (Homo sapiens) (UniProt Q13464); settings: Compound concentration 1000.0 nM
[12] = biological target: Tyrosine-protein kinase FRK (Homo sapiens) (UniProt P42685); settings: Compound concentration 1000.0 nM
[13] = biological target: Ephrin type-A receptor 2 (Homo sapiens) (UniProt P29317); settings: Compound concentration 1000.0 nM
[14] = biological target: Cyclin-dependent kinase 15 (Homo sapiens) (UniProt Q96Q40); settings: Compound concentration 1000.0 nM
[15] = biological target: Dual specificity tyrosine-phosphorylation-regulated kinase 1B (Homo sapiens) (UniProt Q9Y463); settings: Compound concentration 1000.0 nM
[16] = biological target: Ribosomal protein S6 kinase alpha-3 (Homo sapiens) (UniProt P51812); settings: Compound concentration 1000.0 nM
[17] = biological target: cAMP-dependent protein kinase catalytic subunit alpha (Homo sapiens) (UniProt P17612); settings: Compound concentration 1000.0 nM
[18] = tested on: Receptor-type tyrosine-protein kinase FLT3 (Homo sapiens), P36888 [UNDEFINED MUTATION]; settings: Compound concentration 1000.0 nM
[19] = biological target: Vascular endothelial growth factor receptor 3 (Homo sapiens) (UniProt P35916); settings: Compound concentration 1000.0 nM
[20] = tested on: Receptor-type tyrosine-protein kinase FLT3 (Homo sapiens), P36888 [R834Q]; settings: Compound concentration 1000.0 nM
[21] = biological target: Cyclin-dependent kinase 17 (Homo sapiens) (UniProt Q00537); settings: Compound concentration 1000.0 nM
[22] = biological target: Tyrosine-protein kinase Fes/Fps (Homo sapiens) (UniProt P07332); settings: Compound concentration 1000.0 nM
[23] = biological target: Serine/threonine-protein kinase DCLK2 (Homo sapiens) (UniProt Q8N568); settings: Compound concentration 1000.0 nM
[24] = tested on: Epidermal growth factor receptor (Homo sapiens), P00533 [UNDEFINED MUTATION]; settings: Compound concentration 1000.0 nM
[25] = biological target: Casein kinase I isoform gamma-1 (Homo sapiens) (UniProt Q9HCP0); settings: Compound concentration 1000.0 nM
[26] = biological target: Protein kinase C iota type (Homo sapiens) (UniProt P41743); settings: Compound concentration 1000.0 nM
[27] = tested on: Proto-oncogene tyrosine-protein kinase receptor Ret (Homo sapiens), P07949 [V804M]; settings: Compound concentration 1000.0 nM
[28] = biological target: T2, Muscarinic acetylcholine receptor M1 (Homo sapiens) (UniProt P11229); settings: Compound concentration 10.0 uM
T2 sequence (whole entry): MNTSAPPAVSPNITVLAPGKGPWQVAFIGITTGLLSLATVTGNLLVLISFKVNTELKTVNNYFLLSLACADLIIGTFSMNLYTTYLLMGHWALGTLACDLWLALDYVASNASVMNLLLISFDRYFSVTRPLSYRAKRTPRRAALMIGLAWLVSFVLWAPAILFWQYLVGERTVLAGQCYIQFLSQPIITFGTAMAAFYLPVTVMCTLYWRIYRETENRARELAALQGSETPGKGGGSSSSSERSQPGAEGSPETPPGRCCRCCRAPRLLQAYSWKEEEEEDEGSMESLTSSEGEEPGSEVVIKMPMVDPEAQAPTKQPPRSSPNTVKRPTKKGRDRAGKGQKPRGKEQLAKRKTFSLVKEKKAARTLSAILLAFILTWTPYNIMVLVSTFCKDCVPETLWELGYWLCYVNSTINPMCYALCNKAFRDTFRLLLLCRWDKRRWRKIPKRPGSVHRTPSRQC

[29] = biological target: Serine/threonine-protein kinase N2 (Homo sapiens) (UniProt Q16513); settings: Compound concentration 1000.0 nM
[30] = biological target: Mitogen-activated protein kinase kinase kinase kinase 2 (Homo sapiens) (UniProt Q12851); settings: Compound concentration 1000.0 nM
[31] = biological target: Ephrin type-B receptor 6 (Homo sapiens) (UniProt O15197); settings: Compound concentration 1000.0 nM
[32] = biological target: Receptor-type tyrosine-protein kinase FLT3 (Homo sapiens) (UniProt P36888); settings: Compound concentration 1000.0 nM

Chain of Cyclin-dependent kinase 17 (Homo sapiens) (Q00537 whole entry, looked up): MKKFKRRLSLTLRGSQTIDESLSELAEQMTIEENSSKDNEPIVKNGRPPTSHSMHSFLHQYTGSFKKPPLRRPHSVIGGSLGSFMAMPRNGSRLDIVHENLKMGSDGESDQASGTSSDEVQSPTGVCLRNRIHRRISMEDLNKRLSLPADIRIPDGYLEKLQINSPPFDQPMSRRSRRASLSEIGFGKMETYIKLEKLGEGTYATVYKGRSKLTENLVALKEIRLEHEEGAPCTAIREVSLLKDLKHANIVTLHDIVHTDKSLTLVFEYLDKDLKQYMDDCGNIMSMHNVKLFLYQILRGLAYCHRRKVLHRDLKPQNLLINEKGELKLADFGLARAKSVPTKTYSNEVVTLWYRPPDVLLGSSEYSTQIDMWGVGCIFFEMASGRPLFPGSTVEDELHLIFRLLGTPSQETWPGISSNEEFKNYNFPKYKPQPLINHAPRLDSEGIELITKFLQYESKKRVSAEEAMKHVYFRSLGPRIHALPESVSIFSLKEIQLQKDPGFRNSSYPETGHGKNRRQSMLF
Chain of Rho-associated protein kinase 2 (Homo sapiens) (O75116 whole entry, looked up): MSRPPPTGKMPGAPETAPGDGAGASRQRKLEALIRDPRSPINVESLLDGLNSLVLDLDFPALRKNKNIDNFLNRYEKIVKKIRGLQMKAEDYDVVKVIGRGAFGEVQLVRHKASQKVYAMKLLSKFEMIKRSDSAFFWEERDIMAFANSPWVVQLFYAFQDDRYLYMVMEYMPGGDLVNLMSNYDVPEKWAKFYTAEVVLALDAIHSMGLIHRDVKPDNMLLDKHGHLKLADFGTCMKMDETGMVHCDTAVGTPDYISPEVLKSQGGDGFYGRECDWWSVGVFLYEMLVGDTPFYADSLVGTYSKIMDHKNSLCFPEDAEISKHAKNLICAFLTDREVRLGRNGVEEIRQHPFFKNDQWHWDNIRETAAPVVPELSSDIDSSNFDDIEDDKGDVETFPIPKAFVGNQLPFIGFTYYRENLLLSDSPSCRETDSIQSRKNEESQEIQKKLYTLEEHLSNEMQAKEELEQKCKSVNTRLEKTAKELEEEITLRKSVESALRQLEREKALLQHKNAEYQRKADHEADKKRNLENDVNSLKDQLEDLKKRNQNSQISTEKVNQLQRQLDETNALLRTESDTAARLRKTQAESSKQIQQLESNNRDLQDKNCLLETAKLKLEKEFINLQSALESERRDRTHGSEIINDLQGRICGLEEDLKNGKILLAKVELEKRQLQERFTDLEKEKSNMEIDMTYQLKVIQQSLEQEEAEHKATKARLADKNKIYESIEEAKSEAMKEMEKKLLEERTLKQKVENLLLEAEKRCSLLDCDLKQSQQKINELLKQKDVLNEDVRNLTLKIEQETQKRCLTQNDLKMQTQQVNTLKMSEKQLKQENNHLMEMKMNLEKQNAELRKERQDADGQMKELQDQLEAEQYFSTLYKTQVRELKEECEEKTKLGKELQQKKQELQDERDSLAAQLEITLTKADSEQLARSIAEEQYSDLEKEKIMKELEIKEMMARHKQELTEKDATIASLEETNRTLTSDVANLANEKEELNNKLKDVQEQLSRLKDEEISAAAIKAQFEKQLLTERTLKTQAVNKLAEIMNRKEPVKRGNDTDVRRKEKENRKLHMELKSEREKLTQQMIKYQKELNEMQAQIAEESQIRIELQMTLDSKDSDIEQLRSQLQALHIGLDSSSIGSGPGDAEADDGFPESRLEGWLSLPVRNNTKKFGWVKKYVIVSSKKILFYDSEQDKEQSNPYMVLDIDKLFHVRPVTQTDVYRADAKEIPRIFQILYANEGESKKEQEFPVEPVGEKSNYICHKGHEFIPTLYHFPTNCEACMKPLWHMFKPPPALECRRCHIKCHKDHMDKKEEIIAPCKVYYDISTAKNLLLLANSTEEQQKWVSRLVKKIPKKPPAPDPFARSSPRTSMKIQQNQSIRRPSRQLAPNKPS
Chain of eIF-2-alpha kinase GCN2 (Homo sapiens), Q9P2K8 [S808G] (Q9P2K8 whole entry S808G): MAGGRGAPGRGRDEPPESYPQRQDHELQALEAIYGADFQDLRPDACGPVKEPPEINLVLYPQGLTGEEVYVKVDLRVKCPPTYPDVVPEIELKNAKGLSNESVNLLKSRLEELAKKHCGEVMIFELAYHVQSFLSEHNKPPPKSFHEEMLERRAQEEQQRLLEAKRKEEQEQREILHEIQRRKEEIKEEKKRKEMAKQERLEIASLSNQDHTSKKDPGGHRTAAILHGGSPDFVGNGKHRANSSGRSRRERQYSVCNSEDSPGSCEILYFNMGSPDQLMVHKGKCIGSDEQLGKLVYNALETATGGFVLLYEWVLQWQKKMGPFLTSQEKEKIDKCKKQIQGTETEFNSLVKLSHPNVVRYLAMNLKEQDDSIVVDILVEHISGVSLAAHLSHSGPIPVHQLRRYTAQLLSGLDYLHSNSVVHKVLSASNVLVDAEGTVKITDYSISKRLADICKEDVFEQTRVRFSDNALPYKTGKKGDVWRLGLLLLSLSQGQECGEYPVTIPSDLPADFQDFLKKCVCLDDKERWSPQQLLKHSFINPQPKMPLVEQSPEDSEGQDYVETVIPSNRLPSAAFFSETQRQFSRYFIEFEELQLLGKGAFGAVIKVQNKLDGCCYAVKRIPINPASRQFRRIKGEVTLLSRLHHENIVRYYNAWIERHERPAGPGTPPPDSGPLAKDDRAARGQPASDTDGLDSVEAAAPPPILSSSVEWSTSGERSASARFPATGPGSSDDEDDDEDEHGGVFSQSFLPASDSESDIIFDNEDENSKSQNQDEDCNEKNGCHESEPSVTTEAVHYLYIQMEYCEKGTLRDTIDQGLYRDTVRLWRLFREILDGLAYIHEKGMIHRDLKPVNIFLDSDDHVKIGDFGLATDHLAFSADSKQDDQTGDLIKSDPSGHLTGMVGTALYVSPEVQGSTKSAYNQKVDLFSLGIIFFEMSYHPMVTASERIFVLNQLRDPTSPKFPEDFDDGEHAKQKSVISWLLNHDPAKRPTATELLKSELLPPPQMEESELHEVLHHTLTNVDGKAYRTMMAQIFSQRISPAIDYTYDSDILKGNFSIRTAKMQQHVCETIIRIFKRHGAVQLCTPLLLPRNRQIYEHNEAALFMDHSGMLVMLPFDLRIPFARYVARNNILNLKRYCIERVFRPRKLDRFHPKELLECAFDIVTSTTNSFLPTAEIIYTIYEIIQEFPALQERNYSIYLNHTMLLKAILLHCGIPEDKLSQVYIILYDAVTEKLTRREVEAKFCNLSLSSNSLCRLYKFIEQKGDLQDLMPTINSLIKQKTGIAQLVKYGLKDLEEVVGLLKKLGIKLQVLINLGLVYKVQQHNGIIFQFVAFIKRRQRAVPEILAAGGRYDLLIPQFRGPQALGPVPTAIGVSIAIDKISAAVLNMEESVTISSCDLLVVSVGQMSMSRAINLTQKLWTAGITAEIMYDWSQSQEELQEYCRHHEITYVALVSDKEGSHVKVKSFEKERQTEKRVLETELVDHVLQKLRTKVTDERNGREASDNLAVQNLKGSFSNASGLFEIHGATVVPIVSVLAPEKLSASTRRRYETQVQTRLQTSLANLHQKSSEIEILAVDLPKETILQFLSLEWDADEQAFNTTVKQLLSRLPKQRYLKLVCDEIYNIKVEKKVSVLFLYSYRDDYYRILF
Chain of Cyclin-dependent kinase 15 (Homo sapiens) (Q96Q40 whole entry): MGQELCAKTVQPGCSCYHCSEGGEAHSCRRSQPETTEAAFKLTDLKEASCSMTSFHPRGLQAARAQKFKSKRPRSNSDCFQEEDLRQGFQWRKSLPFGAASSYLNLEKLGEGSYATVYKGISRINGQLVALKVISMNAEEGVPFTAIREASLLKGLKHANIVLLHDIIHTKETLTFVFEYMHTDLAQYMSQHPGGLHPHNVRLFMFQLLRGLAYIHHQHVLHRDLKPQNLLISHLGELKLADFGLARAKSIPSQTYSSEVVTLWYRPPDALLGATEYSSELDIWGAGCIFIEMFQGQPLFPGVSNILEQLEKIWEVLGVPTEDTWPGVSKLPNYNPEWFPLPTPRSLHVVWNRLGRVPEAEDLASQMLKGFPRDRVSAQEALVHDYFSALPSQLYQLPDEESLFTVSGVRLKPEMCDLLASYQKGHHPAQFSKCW
Chain of Dual specificity mitogen-activated protein kinase kinase 1 (Homo sapiens) (Q02750 whole entry): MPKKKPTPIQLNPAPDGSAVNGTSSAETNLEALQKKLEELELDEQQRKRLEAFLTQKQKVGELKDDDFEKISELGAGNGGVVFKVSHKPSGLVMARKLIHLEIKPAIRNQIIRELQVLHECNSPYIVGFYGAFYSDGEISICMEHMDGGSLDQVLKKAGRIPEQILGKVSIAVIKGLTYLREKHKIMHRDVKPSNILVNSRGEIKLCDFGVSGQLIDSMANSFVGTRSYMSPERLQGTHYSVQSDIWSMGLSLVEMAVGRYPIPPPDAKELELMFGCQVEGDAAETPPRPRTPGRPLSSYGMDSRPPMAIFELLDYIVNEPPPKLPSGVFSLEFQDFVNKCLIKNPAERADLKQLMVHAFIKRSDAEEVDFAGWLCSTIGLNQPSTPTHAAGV
Chain of Glycogen synthase kinase-3 beta (Homo sapiens) (P49841 whole entry, looked up): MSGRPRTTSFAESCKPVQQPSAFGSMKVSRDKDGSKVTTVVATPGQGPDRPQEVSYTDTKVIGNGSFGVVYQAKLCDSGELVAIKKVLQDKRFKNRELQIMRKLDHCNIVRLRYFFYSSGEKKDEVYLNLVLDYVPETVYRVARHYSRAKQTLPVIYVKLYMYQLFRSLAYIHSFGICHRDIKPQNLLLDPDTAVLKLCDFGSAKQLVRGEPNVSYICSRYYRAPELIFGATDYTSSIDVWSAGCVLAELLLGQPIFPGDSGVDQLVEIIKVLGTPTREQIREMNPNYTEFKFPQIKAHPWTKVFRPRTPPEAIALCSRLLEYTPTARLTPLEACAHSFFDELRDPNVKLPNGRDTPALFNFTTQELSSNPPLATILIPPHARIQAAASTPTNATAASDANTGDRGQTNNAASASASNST

SMILES | residual activity [1] [%] | inhibition [2] [%] | residual activity [3] [%] | residual activity [4] [%] | residual activity [5] [%] | residual activity [6] [%] | residual activity [7] [%] | residual activity [8] [%] | residual activity [9] [%] | residual activity [10] [%] | residual activity [11] [%] | residual activity [12] [%] | residual activity [13] [%] | residual activity [14] [%] | residual activity [15] [%] | residual activity [16] [%] | residual activity [17] [%] | residual activity [18] [%] | residual activity [19] [%] | residual activity [20] [%] | further results
FC(F)(F)c1ccc2c(c1)nc(-c1cccnc1)n2C1CC1 [MSD-CYP11B2-Negative-control] | 93 | -8.72 | 94 | 100 | 100 | 100 | 100 | 100 | 100 | 100 | 100 | 100 | 100 | 100 | 53 | 89 | 100 | 92 | 91 | 100 | residual activity [21]: 100%; residual activity [22]: 100%; residual activity [23]: 100%; residual activity [24]: 100%; residual activity [25]: 100%; residual activity [26]: 83%; residual activity [27]: 100%; inhibition [28]: -7.11%; residual activity [29]: 100%; residual activity [30]: 73%; residual activity [31]: 100%; residual activity [32]: 93%
CC(C)(O)c1cncc(-c2nc3ccc(F)cc3n2C2CC2)c1 [MSD-CYP11B2] | 100 | -6.88 | 100 | 100 | 92 | 100 | 100 | 100 | 100 | 100 | 99 | 100 | 100 | 84 | 44 | 100 | 100 | 83 | 100 | 100 | residual activity [21]: 100%; residual activity [22]: 100%; residual activity [23]: 100%; residual activity [24]: 100%; residual activity [25]: 100%; residual activity [26]: 89%; residual activity [27]: 100%; inhibition [28]: -4.49%; residual activity [29]: 100%; residual activity [30]: 98%; residual activity [31]: 100%; residual activity [32]: 93%
